Test: Toxicity in po dosed human assessed as maximum daily dose
Type: organism-based
Conditions: in vivo

| Compound | Activity |
| --- | --- |
| CC(C)(C)NC(=O)[C@@H]1C[C@@H]2CCCC[C@@H]2CN1C[C@@H](O)[C@H](Cc1ccccc1)NC(=O)[C@H](CC(N)=O)NC(=O)c1ccc2ccccc2n1 | 2000 mg |
| CCCN(CCC)C(=O)Cc1c(-c2ccc(Cl)cc2)nc2ccc(Cl)cn12 [ALPIDEM] | 150 mg |
| COc1ccc(Cl)cc1C(=O)NCCc1ccc(S(=O)(=O)NC(=O)NC2CCCCC2)cc1 [GLYBURIDE] | 20 mg |
| CCCCC1=NC2(CCCC2)C(=O)N1Cc1ccc(-c2ccccc2-c2nnn[nH]2)cc1 [IRBESARTAN] | 300 mg |
| CC(=O)N1CCN(c2ccc(OCC3COC(Cn4ccnc4)(c4ccc(Cl)cc4Cl)O3)cc2)CC1 (stereo not drawn) [KETOCONAZOLE] | 400 mg |
| CS(=O)(=O)CCNCc1ccc(-c2ccc3ncnc(Nc4ccc(OCc5cccc(F)c5)c(Cl)c4)c3c2)o1 [LAPATINIB] | 1500 mg |
| CCCCc1nc(Cl)c(CO)n1Cc1ccc(-c2ccccc2-c2nn[nH]n2)cc1 [LOSARTAN] | 100 mg |
| CCc1nn(CCCN2CCN(c3cccc(Cl)c3)CC2)c(=O)n1CCOc1ccccc1 [NEFAZODONE] | 600 mg |
| COC(=O)C1=C(C)NC(C)=C(C(=O)OCCN(C)Cc2ccccc2)C1c1cccc([N+](=O)[O-])c1 (stereo not drawn) [NICARDIPINE] | 120 mg |
| CCc1ccc(CCOc2ccc(CC3SC(=O)NC3=O)cc2)nc1 (stereo not drawn) [PIOGLITAZONE] | 45 mg |
| COC(=O)[C@H]1[C@H]2C[C@@H]3c4[nH]c5cc(OC)ccc5c4CCN3C[C@H]2C[C@@H](OC(=O)c2cc(OC)c(OC)c(OC)c2)[C@@H]1OC [RESERPINE] | 0.5 mg |
| CN(CCOc1ccc(CC2SC(=O)NC2=O)cc1)c1ccccn1 (stereo not drawn) [ROSIGLITAZONE] | 8 mg |
| Cc1c(C)c2c(c(C)c1O)CCC(C)(COc1ccc(CC3SC(=O)NC3=O)cc1)O2 (stereo not drawn) [TROGLITAZONE] | 600 mg |
